Test results from patent publication US20190136302A1, “METHODS FOR DETECTING OLIGONUCLEOTIDES IN A SAMPLE” (THE REGENTS OF THE UNIVERSITY OF CALIFORNIA, priority 2016, published 2019).

Experiments:
Capture PRLR SMO oligo = test: ELOSA competition with PRLR SMO capture oligonucleotide and HRP-PRLR SMO; assay type: binding, mouse; conditions: for hybridization to Capture PRLR SMO / displacement of HRP-PRLR SMO (absorbance): PRLR SMO capture oligonucleotide at increasing concentrations, mouse sequences
Description: (§1) The capture reagent was synthesized using a sequence antisense to the test oligonucleotide, along with an amino-terminus and a 12 carbon aliphatic spacer. The amino-terminus allows binding to the wells of a 96-well, polystyrene DNA-binding plate and the spacer minimizes steric hindrance during hybridization of the test oligonucleotides. The capture reagent (2 picomoles/well) was incubated in 100 μl 0.05M phosphate (pH 8.5) —1 mM EDTA at 4° C. for 24 h or longer.
(§2) After washing (3 times with 0.05M TrisHCl (pH 8)—1 mM EDTA), the plate was blocked to reduce non-specific binding (200 μl 3% bovine serum albumin—0.05M TrisHCl (pH 8)—1 mM EDTA at 37° C. for 4 h).
(§3) After washing 3 times, the test oligo and a constant concentration of horseradish peroxidase-labeled oligonucleotide (i.e., the competition oligonucleotide with a sequence the same as test oligo) was incubated with the capture reagent. The amount of competition oligonucleotide hybridized to the capture reagent is inversely proportional to the total amount of test oligonucleotide present. Incubations were in a total final volume of 100 μl in 0.05M TrisHCl (pH 7.5)—1 mM EDTA, with Test oligo (variable doses up to 1 pmole), constant HRP-Oligo (0.5-1 pmole), and a total serum volume of 10 to 25 μl. Incubations were at 37° C. for 15 h.
(§4) After washing 3 times with TBST, the competition oligonucleotide bound to the capture reagent was measured using 100 μl 0.1 mg/ml TMB—1% hydrogen peroxide. After color development, the reaction was stopped with 50 μl 1N H2SO4, and the amount of colored product was measured spectrophotometrically at A450.
For clarity, the PRLR SMO vivo-morpholino is referred to as Antimaia to distinguish it from the oligonucleotides being used for competition or capture, which are called HRP-PRLR SMO and capture PRLR SMO, respectively. […] The methods used for these experiments are described in Example 1.

[1] = tested on: Capture Control SMO oligo; test: ELOSA competition with Control SMO capture oligonucleotide and HRP-Control SMO; assay type: binding; conditions: test oligo 5 pmoles; HRP-Control SMO 1 pmole; Capture Control SMO 5 pmoles
Description: as §1, with “The capture reagent (2 picomoles/well) was incubated in 100 μl 0.05M phosphate (pH 8.5) —1 mM EDTA at 4° C. for 24 h or longer.” left out
as §2
as §3, with “Incubations were in a total final volume of 100 μl in 0.05M TrisHCl (pH 7.5)—1 mM EDTA, with Test oligo (variable doses up to 1 pmole), constant HRP-Oligo (0.5-1 pmole), and a total serum volume of 10 to 25 μl.” left out
as §4, with “A450. […]” for “A450.”

[2] = tested on: orthotopic models of breast cancer; conditions: cited from earlier work
[3] = tested on: prolactin receptor (PRLR); conditions: treatment with PRLR SMO; cited from earlier work

| Substance | hybridization to Capture PRLR SMO / displacement of HRP-PRLR SMO (absorbance) (Capture PRLR SMO oligo) | competition with HRP-Control SMO for binding to the Capture Control SMO [1] | sensitivity of the assay (Capture PRLR SMO oligo; Capture PRLR SMO 2 pmoles, HRP-PRLR-SMO 0.5 pmole, presence of serum) [pmol] | competition easily detected above (Capture PRLR SMO oligo; capture reagent 2 pmoles, HRP-PRLR SMO in the 0.5 pmole range, presence of serum) | tolerability ([2]; in vivo) | reduction in metastatic spread ([2]; two orthotopic models of breast cancer) [%] | effect on PRLR splice forms [3] |
| --- | --- | --- | --- | --- | --- | --- | --- |
| 5′-AAAAAAGACGAGATTCGATCGGAGTAAAA-3′ (SEQ ID NO: 1) (all phosphorodiamidate morpholino (PMO); vivo-morpholino: octaguanidine derivatization attached, position not given here) [Control SMO, reference compound] | did not hybridize | competed | – | – | – | – | – |
| 5′-AAAAAGCCCTTCTATTGAAACACAGATACAAAA-3′ (SEQ ID NO: 4) (all phosphorodiamidate morpholino (PMO); vivo-morpholino: octaguanidine derivatization attached, position not given here; listed as Mus sp.) [Antimaia, vivo-morpholino splice-modulating oligomer for the prolactin receptor, phosphorodiamidate morpholino backbone and octaguanidine derivatizations] | displaced HRP-PRLR SMO | essentially no effect | 0.25 | above 0.2 pmoles | well-tolerated | 80 | loss of the growth-promoting PRLR without loss of the growth-inhibiting splice form of the PRLR |
